# Where “and” joins values, the source holds several entries; their conditions need not be identical. Identical values can stand only once.
# Experiments:
# [1] = test system: polychromatic erythrocytes of rat bone marrow; assay: Micronucleus test in rat bone marrow (OECD 474); conditions: for MN/ 1000 PCE Mean ± SD / MN/ 1000 PCE Range / PCE/1000 Erythrozyten Mean ± SD / PCE/NCE quotient (%): 5 days
# Description: 13-mm filter disks with a pore size of 8 µm were placed on the bottom of 5-mL plastic syringes. Approximately 500 mg of a mixture consisting of equal parts microcrystalline cellulose (Sigmacell®, Typ 50) and alpha-cellulose fibers was added up to the 2-mL mark.
# Bone marrow preparation was performed according to published methods (Romagna and Staniforth [1989]; Salamone et al. [1980]). The soft tissue was removed from the femora and the epiphyses were cut off. The bone marrow was rinsed off the diaphyses with approximately 3 mL 37 °C-warm fetal calf serum (FCS) (Biochrom, Berlin, Germany) per femur, placed on the above-described cellulose column and eluted with 3 mL of Hank's Balanced Salt Solution (HBSS) (Biochrom, Berlin, Germany) (with Ca^2+ und Mg^2+). The eluate was centrifuged at 300 g for 5 min and the pellet was suspended in […] FCS. From this suspension three portions per femur were individually placed on slides, air-dried and then stained for 4 min in May-Grunwald solution 1 (Merck, Darmstadt, Germany), followed by 4 min in May–Grunwald solution 2 (May-Grunwald solution 1 diluted 1:1 with aqua bidest.), rinsed in aqua bidest and then stained with Giemsa solution (7.5% dilution derived from Giemsa obtained from Merck, Darmstadt, Germany) for 15 min. Subsequently, the slides were washed twice with aqua bidest, then dried, cleared in xylene and covered with Corbit-Balsam (I. Hecht, Kiel-Hasse, Germany).
# 2000 polychromatic erythrocytes (PCE) per animal (1000 per slide) were evaluated at 1000-fold magnification under immersion oil for the presence/absence of large and small micronuclei as well as the proportion of PCE among the total erythrocytes. Statistical significance of differences between treated versus untreated groups was evaluated by the one-sided Wilcoxon test (using the program MUKERN). The result is regarded as positive when the following criteria are fulfilled: 1.
# 2000 PCEs were analyzed for micronuclei per animal.
# rat liver cells = assay: Comet assay in presence of FPG, liver; conditions: liver, with FPG, 5 days; for TI (%), mean of medians from 2 slides: individual animals
# Description: Animals were anesthetized by 3.5% isoflurane (approximately 3 min, evaporator Dräger Vapor 19.3) and then killed by cervical dislocation. The liver was removed and its left lateral lobe used for the Comet assay. The remainder of the liver was washed in saline and then in two aliquots shock frozen in liquid nitrogen and stored at − 80 °C for later examinations. Subsequently the lung was removed from the dead animal. Its left lobe was used for the Comet assay and the remainder treated as described above for the liver. Thereafter the femora were removed for the preparation of the bone marrow.
# The Comet assay was performed under alkaline conditions according to the principles described by Singh et al. ([1988]) and Tice et al. ([2000]).
# Liver and lung cells were obtained essentially as described by Hartmann et al. ([2004]) and by the Japanese Center for the Validation of Alternative Methods (JaCVAM [2009]). Single cells were obtained within 1 h after killing of the animals in order to minimize DNA damage during the preparation.
# The organ parts (see above) were washed in mincing buffer (50 mM EDTA in HBSS [without Ca^2+ and Mg^2+] pH 7.5: DMSO 9:1 (v/v), the latter added shortly before use, stored at 4 °C), cut into 1 to 2-mm pieces in ice-cold mincing buffer and transferred to a cell sieve with 70-µm pores. The viability of the cell suspension was evaluated by the Trypan Blue Assay (Strober [2001]).
# 100 µL of the obtained cell suspension was mixed at 37 °C with 900 µL Low Melting Agarose (LMA) (0.7% agarose in phosphate-buffered saline [PBS] [Biochrom, Berlin, Germany] without Ca^2+ and Mg^2+). 100 µL of this mixture was transferred to a slide, which had been coated with Normal Melting Agarose (NMA) (0.6% agarose in PBS without Ca^2+ and Mg^2+). The slides were protected with a cover slip and the agarose was hardened at approximately 4 °C. The cover slips were then removed and the slides put over night at 4 °C into lysis buffer (2.5 M NaCl, 125 mM NaOH, 127 mM EDTA, 10 mM Tris/NaOH, pH 10; 1% Triton X-100 and 10% DMSO (v/v), the latter two added before use) in order to lyse the cell membrane, nuclear membrane and remove the histone.
# The then following procedures were performed in a shaded room to minimize UV-mediated DNA damage during the procedures.
# Those slides which were destined to be treated with the DNA base excision repair enzyme FPG (Sigma Aldrich, Steinheim, Germany) were washed (3 times for 5 min) with FPG buffer (0.04 M HEPES, 0.5 mM EDTA, 0.1 M KCl, pH 8; add shortly before use bovine serum albumin [BSA] to a final concentration of 0.02%). Subsequently 50 µL FPG-enzyme-buffer (prepared shortly prior to use by 30-fold dilution of the following suspension in FPG buffer: 7 µL FPG-enzyme (14 U) and 70 µL glycerol in 623 µL FPG-Puffer, stored at − 80 °C) was pipetted on the slide which was covered with a cover slide and incubated for 30 min at 37 °C while being placed on a humid filter paper. After hardening of the agarose cover slips were removed.
# Remaining lysis buffer or FPG buffer was removed by immersing/washing the slides in PBS (without Ca^2+ and Mg^2+).
smiles,measurement,setting,value
"C=CN1CCCC1=O [NVP, N-vinylpyrrolidone]","Mean number of micronuclei in PCE, range over groups","[1]; 5, 10, 20 ppm, male and female rats",1.4 to 2.9 ‰
same,MN/ 1000 PCE Mean ± SD,"[1]; 5 ppm inhalation, female",1.4 ± 0.7 MN/ 1000 PCE
same,MN/ 1000 PCE Range,"[1]; 5 ppm inhalation, female",0.5–2.5 MN/ 1000 PCE
same,PCE/1000 Erythrozyten Mean ± SD,"[1]; 5 ppm inhalation, female",629 ± 18 PCE/1000 Erythrozyten
same,PCE/NCE quotient (%),"[1]; 5 ppm inhalation, female",99%
same,MN/ 1000 PCE Mean ± SD,"[1]; 5 ppm inhalation, male",2.6 ± 0.9 MN/ 1000 PCE
same,MN/ 1000 PCE Range,"[1]; 5 ppm inhalation, male",1.5–4.0 MN/ 1000 PCE
same,PCE/1000 Erythrozyten Mean ± SD,"[1]; 5 ppm inhalation, male",609 ± 40 PCE/1000 Erythrozyten
same,PCE/NCE quotient (%),"[1]; 5 ppm inhalation, male",100%
same,Increase in micronuclei in the PCE,"[1]; 5 ppm, 10 ppm or 20 ppm",no significant increase
same,MN/ 1000 PCE Mean ± SD,"[1]; 10 ppm inhalation, female",1.7 ± 1.0 MN/ 1000 PCE
same,MN/ 1000 PCE Range,"[1]; 10 ppm inhalation, female",0.5–3.0 MN/ 1000 PCE
same,PCE/1000 Erythrozyten Mean ± SD,"[1]; 10 ppm inhalation, female",612 ± 44 PCE/1000 Erythrozyten
same,PCE/NCE quotient (%),"[1]; 10 ppm inhalation, female",96%
same,MN/ 1000 PCE Mean ± SD,"[1]; 10 ppm inhalation, male",2.9 ± 1.9 MN/ 1000 PCE
same,MN/ 1000 PCE Range,"[1]; 10 ppm inhalation, male",1.5–6.5 MN/ 1000 PCE
same,PCE/1000 Erythrozyten Mean ± SD,"[1]; 10 ppm inhalation, male",622 ± 33 PCE/1000 Erythrozyten
same,PCE/NCE quotient (%),"[1]; 10 ppm inhalation, male",102%
same,MN/ 1000 PCE Mean ± SD,"[1]; 20 ppm inhalation, female",2.3 ± 0.8 MN/ 1000 PCE
same,MN/ 1000 PCE Range,"[1]; 20 ppm inhalation, female",1.0–3.0 MN/ 1000 PCE
same,PCE/1000 Erythrozyten Mean ± SD,"[1]; 20 ppm inhalation, female",615 ± 48 PCE/1000 Erythrozyten
same,PCE/NCE quotient (%),"[1]; 20 ppm inhalation, female",97%
same,MN/ 1000 PCE Mean ± SD,"[1]; 20 ppm inhalation, male",2.0 ± 0.9 MN/ 1000 PCE
same,MN/ 1000 PCE Range,"[1]; 20 ppm inhalation, male",0.5–3.0 MN/ 1000 PCE
same,PCE/1000 Erythrozyten Mean ± SD,"[1]; 20 ppm inhalation, male",553 ± 57 PCE/1000 Erythrozyten
same,PCE/NCE quotient (%),"[1]; 20 ppm inhalation, male",90%
same,Micronuclei in normochromatic erythrocytes (NCE),[1]; after exposure to NVP,no micronuclei were observed
same,Decrease of the ratio of PCE to NCE,[1]; high-dose (20 ppm) males vs vehicle control,10%
same,Hedgehogs/100 cells (mean ± SD),"rat liver cells; female, 5 ppm inhalation",4 ± 2 /100 cells
same,"TI (%), mean of medians from 2 slides","rat liver cells; female, 5 ppm inhalation",6.5% and 8.4% and 9.0% and 9.3% and 5.6% and 7.1%
same,Hedgehogs/100 cells (mean ± SD),"rat liver cells; female, 10 ppm inhalation",3 ± 2 /100 cells
same,TI (%) (mean ± SD),"rat liver cells; female, 10 ppm inhalation",7.9 ± 2.74%
same,"TI (%), mean of medians from 2 slides","rat liver cells; female, 10 ppm inhalation",5.5% and 10.7% and 5.6% and 5.3% and 9.4% and 11.0%
same,Hedgehogs/100 cells (mean ± SD),"rat liver cells; female, 20 ppm inhalation",4 ± 2 /100 cells
same,TI (%) (mean ± SD),"rat liver cells; female, 20 ppm inhalation",7.0 ± 1.97%
same,"TI (%), mean of medians from 2 slides","rat liver cells; female, 20 ppm inhalation",9.2% and 5.2% and 8.3% and 6.3% and 8.6% and 4.4%
same,Hedgehogs/100 cells (mean ± SD),"rat liver cells; male, 5 ppm inhalation",1 ± 1 /100 cells
